Data reported in patent US9782393B2, “Pharmaceutical compositions and methods for treating cancer and biomarkers for drug screening” (NATIONAL DEFENSE MEDICAL CENTER, priority 2013, dated 2017).
Read-outs that look alike come from different tables or passages of the source.

Key:
ACHN cells [1] = experiment: SRB assay, growth inhibition of ACHN cells; type: cell-based, Human; details: 5 μM sorafenib, 10 μM GW5074, single or combined, 24 hours
Description: Human renal carcinoma (ACHN) cells were cultured in Eagle MEM (Minimum Essential Medium) with 10% FBS (Fetal Bovine Serum) and 1% penicillin/streptomycin. Sulforhodamine B (SRB) is a negative […] with a sulfonic acid group and binds to basic amino acids of intracellular proteins in weak acidic conditions. The SRB […] was extracted from cells using weak alkaline solution and then subjected to absorbance measurement. The amount of intracellular proteins, which is an indicator for cell survival, can be calculated from the amount of SRB. ACHN or A498 cells were treated singularly with 2.5 μM sorafenib, 5 μM sorafenib, 10 μM sorafenib, GW5074, L779450 or PLX4720 for 24, 48 and 72 hours, followed by SRB assay to assess cell survival. Alternatively, ACHN cells were pre-treated with 10 μM GW5074, 10 μM L779450 or 10 μM PLX4720 for 30 minutes prior to 5 μM sorafenib treatment for additional 24, 48 and 72 hours, followed by SRB assay to assess growth inhibition.

ACHN cells [2] = experiment: ACHN xenograft in immunodeficient mice, tumor volume; type: in vivo; details: printed as 5 μM sorafenib, 10 μM GW5074, separate or combined; once a day for three weeks; n=8
Description: Six-week old immnunodeficient male mice (BALB/cAnN.Cg-Foxn1^nu/CrlNarl) with an average weight of 20 grams were xenografted with 1×10^7 ACHN cells to the right by […]. The mice were maintained in a specific pathogen-free (SPF) environment. The size of tumor was measured using a digital caliper twice a week and tumor volume was calculated by the equation of length*width*height*0.5. […] A total of four groups were included in the experiment: a control group which received only vehicle (DMSO), […], 25 mg/kg GW5074, […], respectively, with 8 mice in each group.

ACHN cells [3] = experiment: Annexin V-FITC / propidium iodide flow cytometry, cell necroptosis; type: cell-based, Human; details: 24 hours, 5 μM sorafenib, 10 μM GW5074, or both
Description: (§1) Cells were cultured as described in example 1, washed with phosphate buffered saline (PBS), and stained with annexin V-FITC and propidium iodide (PI) for 15 minutes. The presence of fluorescent Annexin V as well as propidium iodide (PI) was detected by flow cytometry so as to determine whether the cell death is caused by apoptosis or necrosis. The expression of c-Raf and DAPK as well as the phosphorylation status of DAPK were examined by Western blot and immunoprecipitation using antibodies. Anti-DAPK antibodies or non-immune rabbit IgG (IP: immunoglobulin) were included as negative controls, and cell survival was measured by SRB assay, as shown in example 1.

pDAPK^S308 = type: cell-based, Human; details: ACHN cells; PP2A inhibitor, various concentrations, provided 30 minutes prior to the combination drugs
Description: as §1, with “1. In this experiment, ACHN cells were treated separately with DMSO (as a control group), 5 μM sorafenib, 10 μM GW5074, or combination therapy of 5 μM sorafenib and 10 μM GW5074 for 24 hours.” for “1.”

[4] = 10 mg/kg sorafenib, 25 mg/kg GW5074, or both

Description for Luc-ACHN-LL cells: Immunodeficient male mice was injected with 3×10^5 Luc-ACHN-LL cells in 50 μL PBS at the right renal capsule. In vivo luciferase activity was examined every day for up to three weeks so as to assure no leakage of cancer cells at the kidneys immediately after injection and to monitor metastasis of these cancer cells. Two to five minutes before utilizing the IVIS Xenogene system, 75 mg/kg D-Luciferin (Xenogen) in PBS was injected to the retro-orbital sinus of each mouse. Two weeks after injection of Luc-ACHN-LL cells, IVIS Xenogene system was used to monitor transfer of biological fluorescent images and to calculate the intensities of the photon signals (photons/s/cm^2/steradian). A total of five groups were included in the study: a control group which received only vehicle, and four test groups which respectively received 10 mg/kg sorafenib, 25 mg/kg GW5074, a combination therapy of 10 mg/kg sorafenib and 25 mg/kg GW5074 (the animals were fed with Sor 30 min post i.p. injection of GW), or 60 mg/kg sorafenib.

Compound	death within weeks following injection of cancer cells (survival) (Luc-ACHN-LL cells; [4])	death within weeks following injection of cancer cells (survival) (Luc-ACHN-LL cells; high-dose 60 mg/kg sorafenib)	body weight (Luc-ACHN-LL cells; mouse, in vivo, 60 mg/kg)	growth inhibition of cells (ACHN cells [1])	xenografted tumor volume, inhibition effect (ACHN cells [2])	average cell necroptosis rate (ACHN cells [3])	inhibition of dephosphorylation of pDAPK^S308 under combination therapy (pDAPK^S308)
CNC(=O)c1cc(Oc2ccc(NC(=O)Nc3ccc(Cl)c(C(F)(F)F)c3)cc2)ccn1 [sorafenib]	≤ 8 weeks	≤ 10 weeks	loss of weight	no growth inhibition	nearly no inhibition effect	0.77%	
C=C1[C@@H](O)[C@@H]2O[C@]3(CC[C@H](/C=C/[C@@H](C)[C@@H]4CC(C)=C[C@@]5(O[C@H](C[C@@](C)(O)C(=O)O)CC[C@H]5O)O4)O3)CC[C@H]2O[C@@H]1[C@@H](O)C[C@H](C)[C@H]1O[C@@]2(CCCCO2)CC[C@H]1C [Okadaic acid]							effective in inhibition of dephosphorylation of pDAPK^S308
O=C1Nc2ccc(I)cc2/C1=C/c1cc(Br)c(O)c(Br)c1 [GW5074, 3-(3,5-Dibromo-4-hydroxy-benzylidene)-5-iodo-1,3-dihydro-indol-2-one]	≤ 5 weeks			no growth inhibition	nearly no inhibition effect	1.35%	
